What was measured:
[1] = system: calcineurin; test: Calcineurin cellular activity assay in Jurkat T cells; format: cell-based; conditions: Jurkat T cells expressing peptide or treated with FK506
Experimental: Calcineurin phosphatase activity was measured in vitro using the Calcineurin phosphatase assay kit (BML-AK804, Enzo Life Sciences, Farmingdale, NY, USA). GST or GST-tagged peptides were cultured with CNA for 30 min at room temperature and then performed according to the manufacturer's instructions. Jurkat T cells were transiently transfected with CAG-HA-mCherry-peptide by electroporation endogenous calcineurin phosphatase activity. After 24 hours, the Jurkat T cells were pretreated with FK506 for 1 hour before activation with PMA and ionomycin. Thereafter, the cells were washed with TBS buffer (20 mM Tris, pH 7.2, 150 mM NaCl), resuspended with lysis buffer in a calcineurin cell activity assay kit (BML-AK816, Enzo Life Sciences), and stored on ice for 30 min. Lysate supernatants were collected by gel filtration using Desaltting Column Resin included in the kit, free phosphate was removed, and performed according to the manufacturer's instructions.

[2] = system: Jurkat T cells; test: Real-time quantitative PCR of T-cell activation genes in Jurkat T cells; format: cell-based
Experimental: Jurkat T cells were collected by QIAzol Lysis Reagent (Qiagen) to extract total RNA. cDNA was reverse transcribed from the isolated RNA using AMV Reverse Transcriptase and random hexamers. Real-time quantitative PCR for each cDNA was performed using TB Green® Premix Ex Taq™ (TaKaRa, Kusatsu, Japan) in the CFX Connect Real-time PCR Detection System (Bio-Rad, Hercules, CA, USA), and normalized to expression of 18S rRNA or GAPDH.

[3] = biological target: T1, JNK1 (Homo sapiens, UniProt P45983); test: In vitro kinase assay; format: biochemical; conditions: purified GST-tagged peptide
T1 construct: purchased Proqinase GmbH (Freiburg, Germany)
T1 sequence (P45983 whole entry): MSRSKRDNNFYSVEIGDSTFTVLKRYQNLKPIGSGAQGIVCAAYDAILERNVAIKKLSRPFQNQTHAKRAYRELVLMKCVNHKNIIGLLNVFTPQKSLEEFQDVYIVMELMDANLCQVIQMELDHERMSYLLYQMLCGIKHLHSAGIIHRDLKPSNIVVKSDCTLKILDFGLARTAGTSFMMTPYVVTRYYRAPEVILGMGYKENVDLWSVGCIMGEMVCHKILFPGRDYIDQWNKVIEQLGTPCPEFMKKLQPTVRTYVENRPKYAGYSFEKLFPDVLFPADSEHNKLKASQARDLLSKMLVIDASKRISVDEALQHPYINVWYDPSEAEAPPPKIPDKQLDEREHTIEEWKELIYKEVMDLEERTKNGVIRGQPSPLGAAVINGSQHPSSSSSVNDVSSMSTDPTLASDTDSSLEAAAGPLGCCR
Experimental: (§1) Purified GST-tagged peptides were used for the in vitro kinase assay using activated recombinant kinase obtained from Proqinase GmbH (Freiburg, Germany). Kinase reactions were induced in reaction buffer (50 mM HEPES-NaOH, pH 7.5, 3 mM MgCl2, 3 mM MnCl2, 3 μM sodium orthobanadate, 1 mM dithiothreitol, 50 μM unlabeled ATP, 5 μCi 32P-γ-ATP) for 1 hour at 30° C. The reaction was stopped by the addition of 5× sample buffer, and proteins were isolated using SDS-PAGE. The gels were stained with Coomassie Brilliant Blue, dried, and developed on X-ray film.

[4] = biological target: T2, ERK2 (Homo sapiens, UniProt P28482); test: In vitro kinase assay; format: biochemical; conditions: purified GST-tagged peptide
T2 construct: purchased Proqinase GmbH (Freiburg, Germany)
T2 sequence (P28482 whole entry): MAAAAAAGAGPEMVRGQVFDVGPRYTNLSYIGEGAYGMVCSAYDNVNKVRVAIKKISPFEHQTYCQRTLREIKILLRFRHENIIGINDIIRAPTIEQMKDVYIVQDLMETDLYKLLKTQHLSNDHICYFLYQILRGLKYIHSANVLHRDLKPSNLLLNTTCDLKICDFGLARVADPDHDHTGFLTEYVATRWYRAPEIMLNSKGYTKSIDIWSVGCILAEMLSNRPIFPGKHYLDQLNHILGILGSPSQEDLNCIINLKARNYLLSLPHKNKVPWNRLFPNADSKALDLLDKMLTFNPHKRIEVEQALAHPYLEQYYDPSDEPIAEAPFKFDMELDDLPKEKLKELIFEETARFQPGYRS
Experimental: as §1

[5] = biological target: p38a (Homo sapiens, UniProt Q16539); test: In vitro kinase assay; format: biochemical; conditions: purified GST-tagged peptide
Sequence of p38a (Q16539 whole entry): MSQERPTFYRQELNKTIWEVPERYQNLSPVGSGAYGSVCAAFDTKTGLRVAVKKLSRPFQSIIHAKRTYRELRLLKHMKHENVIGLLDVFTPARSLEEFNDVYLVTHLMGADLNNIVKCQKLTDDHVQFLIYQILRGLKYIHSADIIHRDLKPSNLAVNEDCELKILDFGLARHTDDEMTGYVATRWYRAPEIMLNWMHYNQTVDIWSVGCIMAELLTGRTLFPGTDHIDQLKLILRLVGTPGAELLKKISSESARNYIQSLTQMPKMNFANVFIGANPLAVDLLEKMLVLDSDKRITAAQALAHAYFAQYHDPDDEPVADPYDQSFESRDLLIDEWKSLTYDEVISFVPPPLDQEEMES
Experimental: as §1

[6] = system: His6-tagged CNA; test: In vitro peptide competition assay; format: binding; conditions: VIVIT 15-mer and CABIN1-L-1 peptide, molar ratio 1:50 to 1:400
Experimental: In FIG. 4A, an in vitro peptide competition assay was performed using VIVIT 15-mer and CABIN1-L-1 peptide in a dose-dependent manner. The molar ratio of GST-tagged peptide to competing peptide ranged from 1:50 to 1:400. In FIG. 4B, a mammalian two-hybrid assay was performed using VP16 AD-CNAβ2 and GAL4 DBD-peptide in HEK293T cells treated or not-treated with 1 μM ionomycin. The pM empty vector was used as a negative control. In FIG. 4C, a calcineurin cellular activity assay was performed using Jurkat T cells expressing HA-mCherry-tagged peptides. Jurkat T cells expressing only HA-mCherry were used as negative controls, and cells treated with FK506 were used as positive controls. […] Purified GST was used as a negative control. All experiments were repeated three times, and data were expressed as mean±standard deviation. Statistical differences were determined using one-way analysis of variance. * p<0.05, NS: no statistical significance, NC: negative control.

[7] = biological target: T3, CNAβ2 (Homo sapiens, UniProt P16298); test: Mammalian two-hybrid assay (GAL4 DBD-peptides, VP16 AD-CNAβ2, pG5-luc) in HEK293T cells; format: cell-based; conditions: HEK293T
T3 construct: expressed in transfected cells; host or cells: HEK293T
T3 sequence (P63098 2-170 partner limits assumed, other chains not shown): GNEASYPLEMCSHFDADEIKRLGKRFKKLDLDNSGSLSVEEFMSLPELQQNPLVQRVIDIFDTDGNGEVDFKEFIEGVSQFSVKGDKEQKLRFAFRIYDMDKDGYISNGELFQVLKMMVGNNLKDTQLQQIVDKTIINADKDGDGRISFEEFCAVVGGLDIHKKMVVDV
Experimental: (§2) To measure the transcriptional activity of NFAT, Jurkat T cells were cotransfected with GST-tagged peptides and NFAT-luc by electroporation. After 24 hours, the cells were pretreated with 0.5 μM FK506 for 1 hour and then treated with 40 nM PMA and 1 μM ionomycin for 8 hours. For mammalian two-hybrid assay, HEK293T cells were cotransfected with GAL4 DBD-tagged CABIN1, VIVIT, chimeric, and substituted peptides, VP16 activation domain-tagged CNAβ2, and pG5-luc (a luciferase reporter plasmid containing the GAL4 reaction promoter) for 24 hours. Harvested cells were lysed with luciferase assay lysis buffer (17 mM KH2PO4, 183 mM K2HPO4, pH 7.8, 0.2% [v/v] Triton X-100) and sonicated briefly. The luciferase activity against each cell lysate was measured using Infinite M200 (Tecan, Männedorf, and Switzerland). In addition, the expression level of the transfected protein was confirmed by Western blotting.

[8] = system: NFAT transcriptional activity; test: NFAT luciferase reporter assay in Jurkat T cells expressing GST-tagged peptides; format: cell-based; conditions: PMA and ionomycin treatment
Experimental: as §2

For `C=CC[C@@H]1/C=C(\C)C[C@H](C)C[C@H](OC)[C@H]2O[C@@](O)(C(=O)C(=O)N3CCCC[C@H]3C(=O)O[C@H](/C(C)=C/[C@@H]3CC[C@@H](O)[C@H](OC)C3)[C@H](C)[C@@H](O)CC1=O)[C@H](C)C[C@@H]2OC` [FK506, Tacrolimus, reference compound], the “calcineurin phosphatase activity in cells” value [1] was “reduced the phosphatase activity of CNA”.
In the case of PEITVTPPTP [CABIN1-L-1-2], the “RNA levels of T-cell activation genes by qRT-PCR” value [2] is reported as “reduced RNA levels of these genes more effectively than VIVIT peptides”, the “phosphorylation by JNK1” value [3] is reported as “phosphorylate” and the “phosphorylation by ERK2” value [4] is reported as “phosphorylate”. For the same compound, the “phosphorylation by p38a” value [5] was “phosphorylate”, the “competition for CNA binding” value [6] was “dose-dependently interfered with the interaction between GST-tagged VIVIT peptide and His6-tagged CNA” and the “effect of ionomycin treatment on interaction with CNA” value ([7]; 1 μM ionomycin) was “did not affect the interaction”. The “binding to CNA” value ([7]; GAL4 DBD-tagged peptides, VP16 activation domain-tagged CNA) was “still bound to CNA”, the “NFAT transcriptional activity (luciferase activity)” value [8] was “inhibited luciferase activity compared to the negative control” and the “inhibitory effect on NFAT luciferase activity relative to VIVIT peptide” value [8] was “approximately 4 times”.

From patent US20240376163A1, “PEPTIDE FOR INHIBITING CALCINEURIN AND USE THEREOF” (Seoul National University R&DB Foundation, priority 2023, published 2024)
